Earlier results as cited in publication PMC12347832, “Multi-Component Synthesis of New Fluorinated-Pyrrolo[3,4-b]pyridin-5-ones Containing the 4-Amino-7-chloroquinoline Moiety and In Vitro–In Silico Studies Against Human SARS-CoV-2” (International Journal of Molecular Sciences, 2025).
pIC50: −log10 of the molar value.

Tested on: SARS-CoV-2
Details: cited from earlier work

## CCN(CC)CCCC(C)Nc1ccnc2cc(Cl)ccc12 (stereo not shown) [Chloroquine]
  pIC50: 5.95
